In patent US10238670B2, “9-aminomethyl minocycline compounds and methods of use thereof in urinary tract infection (UTI) treatment” (Paratek Pharmaceuticals, Inc., priority 2016, dated 2019):
Converted amounts (≈) assume the structure as drawn.

Key:
[1] = tested on: MRSA; assay: In vitro MIC, 2010 surveillance isolates; format: cell-based
[2] = tested on: E. cloacae CeftazS; assay: In vitro MIC, 2010 surveillance isolates; format: cell-based; settings: for % R (resistance): CLSI breakpoints
[3] = tested on: A. baumanii; assay: In vitro MIC, 2010 surveillance isolates; format: cell-based
[4] = tested on: K. oxytoca; assay: In vitro MIC, 2010 surveillance isolates; format: cell-based; settings: for % R (resistance): CLSI breakpoints
[5] = tested on: E. faecalis VS; assay: In vitro MIC, 2010 surveillance isolates; format: cell-based; settings: for % R (resistance): CLSI breakpoints
[6] = tested on: E. faecium VNS; assay: In vitro MIC, 2010 surveillance isolates; format: cell-based; settings: for % R (resistance): CLSI breakpoints
[7] = tested on: human plasma protein; settings: literature; cited from earlier work
[8] = tested on: K. pneumoniae ESBL−; assay: In vitro MIC, 2010 surveillance isolates; format: cell-based, Klebsiella pneumoniae; settings: for % R (resistance): CLSI breakpoints
[9] = tested on: MR CoNS; assay: In vitro MIC, 2010 surveillance isolates; format: cell-based, Coagulase-Negative Staphylococcus
[10] = tested on: K. pneumoniae ESBL+; assay: In vitro MIC, 2010 surveillance isolates; format: cell-based, Klebsiella pneumoniae; settings: for % R (resistance): CLSI breakpoints
[11] = tested on: Enterobacter spp; assay: In vitro MIC, 2010 surveillance isolates; format: cell-based; settings: for % R (resistance): CLSI breakpoints
[12] = tested on: E. coli ESBL+; assay: In vitro MIC, 2010 surveillance isolates; format: cell-based, Escherichia coli; settings: for % R (resistance): CLSI breakpoints
[13] = tested on: MS CoNS; assay: In vitro MIC, 2010 surveillance isolates; format: cell-based, Coagulase-Negative Staphylococcus
[14] = tested on: MSSA; assay: In vitro MIC, 2010 surveillance isolates; format: cell-based
[15] = tested on: E. coli ESBL−; assay: In vitro MIC, 2010 surveillance isolates; format: cell-based, Escherichia coli; settings: for % R (resistance): CLSI breakpoints
[16] = tested on: Acinetobacter spp; assay: In vitro MIC, 2010 surveillance isolates; format: cell-based; settings: for range of MICs (N <10, shown instead of MIC90): N=9; for % R (resistance): CLSI breakpoints
[17] = tested on: E. faecalis VNS; assay: In vitro MIC, 2010 surveillance isolates; format: cell-based; settings: for % R (resistance): CLSI breakpoints
[18] = tested on: E. faecium VS; assay: In vitro MIC, 2010 surveillance isolates; format: cell-based; settings: for % R (resistance): CLSI breakpoints
[19] = tested on: E. cloacae CeftazR; assay: In vitro MIC, 2010 surveillance isolates; format: cell-based; settings: for % R (resistance): CLSI breakpoints

C[C@H]1c2cccc(O)c2C(=O)C2=C(O)[C@]3(O)C(=O)C(C(N)=O)=C(O)[C@@H](N(C)C)[C@@H]3[C@@H](O)[C@@H]21 [Doxycycline]
% R (resistance) ([1]; Asia/Pac, Eucast breakpoints): 48.6%
MIC90 ([1]; Asia/Pac, N=428): 8 µg/mL (≈ 18 µM)
% R (resistance) ([1]; Europe, Eucast breakpoints): 10.8%
MIC90 ([1]; Europe, N=750): 4 µg/mL (≈ 9 µM)
% R (resistance) ([1]; L. Amer, CLSI breakpoints): 0%
MIC90 ([1]; L. Amer, N=506): 0.25 µg/mL (≈ 0.563 µM)
% R (resistance) ([1]; N America, CLSI breakpoints): 0.1%
MIC90 ([1]; N America, N=2508): 0.5 µg/mL (≈ 1.13 µM)
MIC90 ([2]; Asia/Pac, N=100): > 8 µg/mL
MIC90 ([2]; Europe, N=183): 4 µg/mL (≈ 9 µM)
% R (resistance) ([2]; L. Amer): 12.3%
MIC90 ([2]; L. Amer, N=57): > 8 µg/mL
% R (resistance) ([2]; N America): 6.2%
MIC90 ([2]; N America, N=210): 4 µg/mL (≈ 9 µM)
MIC90 ([3]; Asia/Pac, N=275): > 8 µg/mL
MIC90 ([3]; Europe, N=145): > 8 µg/mL
% R (resistance) ([3]; L. Amer, CLSI breakpoints): 15.3%
MIC90 ([3]; L. Amer, N=275): > 8 µg/mL
MIC90 ([3]; N America, N=154): > 8 µg/mL
MIC90 ([4]; Asia/Pac, N=17): 2 µg/mL (≈ 4.5 µM)
MIC90 ([4]; Europe, N=158): 2 µg/mL (≈ 4.5 µM)
% R (resistance) ([4]; L. Amer): 12%
MIC90 ([4]; L. Amer, N=25): > 8 µg/mL
% R (resistance) ([4]; N America): 2.3%
MIC90 ([4]; N America, N=177): 4 µg/mL (≈ 9 µM)
MIC90 ([5]; Asia/Pac, N=214): > 8 µg/mL
MIC90 ([5]; Europe, N=669): > 8 µg/mL
% R (resistance) ([5]; L. Amer): 7.6%
MIC90 ([5]; L. Amer, N=290): 8 µg/mL (≈ 18 µM)
% R (resistance) ([5]; N America): 7.1%
MIC90 ([5]; N America, N=863): 8 µg/mL (≈ 18 µM)
MIC90 ([6]; Asia/Pac, N=24): > 8 µg/mL
MIC90 ([6]; Europe, N=71): 8 µg/mL (≈ 18 µM)
% R (resistance) ([6]; L. Amer): 7.3%
MIC90 ([6]; L. Amer, N=41): 8 µg/mL (≈ 18 µM)
% R (resistance) ([6]; N America): 33.1%
MIC90 ([6]; N America, N=478): > 8 µg/mL
human plasma protein binding, Mean [7]: 82-93%
MIC90 ([8]; Asia/Pac, N=189): > 8 µg/mL
MIC90 ([8]; Europe, N=361): > 8 µg/mL
% R (resistance) ([8]; L. Amer): 17.5%
MIC90 ([8]; L. Amer, N=160): > 8 µg/mL
% R (resistance) ([8]; N America): 13.7%
MIC90 ([8]; N America, N=671): > 8 µg/mL
% R (resistance) ([9]; Asia/Pac, Eucast breakpoints): 20.8%
MIC90 ([9]; Asia/Pac, N=77): 8 µg/mL (≈ 18 µM)
% R (resistance) ([9]; Europe, Eucast breakpoints): 8.8%
MIC90 ([9]; Europe, N=510): 2 µg/mL (≈ 4.5 µM)
% R (resistance) ([9]; L. Amer, CLSI breakpoints): 0.3%
MIC90 ([9]; L. Amer, N=301): 1 µg/mL (≈ 2.25 µM)
% R (resistance) ([9]; N America, CLSI breakpoints): 1.3%
MIC90 ([9]; N America, N=461): 2 µg/mL (≈ 4.5 µM)
MIC90 ([10]; Asia/Pac, N=124): > 8 µg/mL
MIC90 ([10]; Europe, N=151): > 8 µg/mL
% R (resistance) ([10]; L. Amer): 44%
MIC90 ([10]; L. Amer, N=209): > 8 µg/mL
% R (resistance) ([10]; N America): 43.5%
MIC90 ([10]; N America, N=108): > 8 µg/mL
MIC90 ([11]; Asia/Pac, N=52): > 8 µg/mL
MIC90 ([11]; Europe, N=82): 8 µg/mL (≈ 18 µM)
% R (resistance) ([11]; L. Amer): 0%
MIC90 ([11]; L. Amer, N=42): 4 µg/mL (≈ 9 µM)
% R (resistance) ([11]; N America): 7.9%
MIC90 ([11]; N America, N=101): 4 µg/mL (≈ 9 µM)
MIC90 ([12]; Asia/Pac, N=219): > 8 µg/mL
resistance rates for ESBL-producing clinical isolates ([12]; E. coli): 46%
MIC90 ([12]; Europe, N=274): > 8 µg/mL
% R (resistance) ([12]; L. Amer): 53%
MIC90 ([12]; L. Amer, N=168): > 8 µg/mL
% R (resistance) ([12]; N America): 42.5%
MIC90 ([12]; N America, N=134): > 8 µg/mL
% R (resistance) ([13]; Asia/Pac, Eucast breakpoints): 5.6%
MIC90 ([13]; Asia/Pac, N=18): 2 µg/mL (≈ 4.5 µM)
% R (resistance) ([13]; Europe, Eucast breakpoints): 3.2%
MIC90 ([13]; Europe, N=185): 1 µg/mL (≈ 2.25 µM)
% R (resistance) ([13]; L. Amer, CLSI breakpoints): 0%
MIC90 ([13]; L. Amer, N=67): 2 µg/mL (≈ 4.5 µM)
% R (resistance) ([13]; N America, CLSI breakpoints): 0.5%
MIC90 ([13]; N America, N=191): 1 µg/mL (≈ 2.25 µM)
% R (resistance) ([14]; Asia/Pac, Eucast breakpoints): 1.7%
MIC90 ([14]; Asia/Pac, N=641): 1 µg/mL (≈ 2.25 µM)
% R (resistance) ([14]; Europe, Eucast breakpoints): 1.4%
MIC90 ([14]; Europe, N=2109): 0.12 µg/mL (≈ 0.27 µM)
% R (resistance) ([14]; L. Amer, CLSI breakpoints): 0%
MIC90 ([14]; L. Amer, N=590): 0.5 µg/mL (≈ 1.13 µM)
% R (resistance) ([14]; N America, CLSI breakpoints): ≤ 0.1%
MIC90 ([14]; N America, N=2373): 0.12 µg/mL (≈ 0.27 µM)
MIC90 ([15]; Asia/Pac, N=282): > 8 µg/mL
MIC90 ([15]; Europe, N=1533): > 8 µg/mL
% R (resistance) ([15]; L. Amer): 31.4%
MIC90 ([15]; L. Amer, N=389): > 8 µg/mL
% R (resistance) ([15]; N America): 16%
MIC90 ([15]; N America, N=1172): > 8 µg/mL
range of MICs (N <10, shown instead of MIC90) ([16]; Asia/Pac): ≤0.06-2
MIC90 ([16]; Europe, N=43): > 8 µg/mL
% R (resistance) ([16]; L. Amer): 0%
range of MICs (N <10, shown instead of MIC90) ([16]; L. Amer): ≤0.06-2
% R (resistance) ([16]; N America): 11.9%
MIC90 ([16]; N America, N=42): > 8 µg/mL
range of MICs (N <10, shown instead of MIC90) ([17]; Asia/Pac, N=1): 8
range of MICs (N <10, shown instead of MIC90) ([17]; Europe, N=8): 0.5-8
% R (resistance) ([17]; L. Amer): 0%
range of MICs (N <10, shown instead of MIC90) ([17]; L. Amer, N=7): ≤0.06-4
% R (resistance) ([17]; N America): 5.3%
MIC90 ([17]; N America, N=38): 8 µg/mL (≈ 18 µM)
MIC90 ([18]; Asia/Pac, N=106): > 8 µg/mL
MIC90 ([18]; Europe, N=303): > 8 µg/mL
% R (resistance) ([18]; L. Amer): 21.6%
MIC90 ([18]; L. Amer, N=51): > 8 µg/mL
% R (resistance) ([18]; N America): 31.3%
MIC90 ([18]; N America, N=115): > 8 µg/mL
MIC90 ([19]; Asia/Pac, N=63): 8 µg/mL (≈ 18 µM)
MIC90 ([19]; Europe, N=72): > 8 µg/mL
% R (resistance) ([19]; L. Amer): 14.3%
MIC90 ([19]; L. Amer, N=42): > 8 µg/mL
% R (resistance) ([19]; N America): 28.6%
MIC90 ([19]; N America, N=77): > 8 µg/mL
